Laboratory results: patent publication US20130029978A1, “NOVEL ARYL UREA DERIVATIVE” (MOCHIDA PHARMACEUTICAL CO., LTD., priority 2009, published 2013)

Legend:
[1] = target: T1, FAAH (Homo sapiens, UniProt O00519); experiment: In vitro FAAH inhibitory activity using U-937 microsomal fraction (AAMCA substrate, fluorescence); type: biochemical; conditions: 6 μg/well, 120 min incubation at room temperature, read-out: FAAH Inhibitory Activity IC50 U-937 microsome
T1 construct: the U-937 microsomal fraction (final concentration of 6 μg/well) prepared in (1); endogenous in cells; host or cells: U-937 cells (microsomal fraction)
T1 sequence (O00519 1-579): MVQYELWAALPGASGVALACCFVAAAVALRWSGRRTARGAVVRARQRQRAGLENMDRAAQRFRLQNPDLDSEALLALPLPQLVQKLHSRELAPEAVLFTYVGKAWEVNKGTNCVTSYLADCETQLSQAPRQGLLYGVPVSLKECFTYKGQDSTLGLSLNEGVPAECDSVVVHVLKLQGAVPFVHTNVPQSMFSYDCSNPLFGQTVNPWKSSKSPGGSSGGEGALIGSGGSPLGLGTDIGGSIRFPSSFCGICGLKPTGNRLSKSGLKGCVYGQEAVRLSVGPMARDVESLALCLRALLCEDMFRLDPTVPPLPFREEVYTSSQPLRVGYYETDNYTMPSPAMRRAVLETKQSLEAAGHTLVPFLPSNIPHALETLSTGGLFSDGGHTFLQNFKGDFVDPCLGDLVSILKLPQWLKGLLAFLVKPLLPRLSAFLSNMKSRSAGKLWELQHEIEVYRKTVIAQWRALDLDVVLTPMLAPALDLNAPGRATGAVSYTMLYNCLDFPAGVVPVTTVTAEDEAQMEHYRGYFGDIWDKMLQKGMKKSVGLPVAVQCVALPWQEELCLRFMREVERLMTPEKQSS
Description: The cultured U-937 cells were harvested, and 0.33-fold volume of buffer solution (50 mmol/L HEPES-NaOH (pH 7.4), 1 mmol/L EDTA, Complete EDTA-free (Roche Diagnostics)) was added to the cells, which was suspended and homogenized. After ultrasonication, the cells were further homogenized and centrifuged (600 g, 10 mins., 4° C.) to collect the supernatant. The supernatant collected was again centrifuged (12000 g, 20 mins., 4° C.), and the supernatant was ultracentrifuged (100000 g, 60 mins., 4° C.) to collect the precipitates. The precipitates were suspended in a buffer solution (50 mmol/L HEPES-NaOH (pH 7.4), 1 mmol/L EDTA) of 5-fold volume with respect to the wet weight of the precipitates to quantify the protein level with the BCA Protein Assay (PIERCE).
(§1) In a 384 well plate (Corning), were added the dilutions of compounds to be tested in various concentrations with 30 μL of a buffer solution (50 mmol/L HEPES (pH 7.4), 1 mmol/L EDTA, 0.1% bovine serum albumin) and the U-937 microsomal fraction (final concentration of 6 μg/well) prepared in (1) or the rat brain microsomal fraction (final concentration of 4 μg/well) prepared in (2), followed by preincubation for 5 minutes at room temperature. AAMCA (SIGMA, (final concentration of 4 mmol/L) as a substrate was added thereto, and the U-937 microsomal fraction was incubated for 120 minutes and the rat brain microsomal fraction for 30 minutes, at room temperature. Before and after the incubation, fluorescence counts were measured using EnVision 2000 (Perkin Elmer) at an excitation wavelength of 355 nm with an emission wavelength of 460 nm to calculate the difference. The count of the well added with the solvent in place of the compound tested and the count of the well added with no microsome were made 0% and 100%, respectively, and the inhibitory activity of each compound tested was determined.
(§2) The FAAH inhibitory activity of the test compound was expressed by IC50 value. The compound of the present invention showing the IC50 value smaller than 0.1 μmol/L, the compound showing the IC50 value not smaller than 0.1 μmol/L and smaller than 1 μmol/L and the compound showing the IC50 value not smaller than 1 μmol/L were designated as +++, ++ and +, respectively, which are shown in TABLE 1.

[2] = target: T2, FAAH (Rattus norvegicus, UniProt P97612); experiment: In vitro FAAH inhibitory activity using rat brain microsomal fraction (AAMCA substrate, fluorescence); type: biochemical; conditions: 4 μg/well, 30 min incubation at room temperature, read-out: FAAH Inhibitory Activity IC50 Rat brain microsome
T2 construct: the rat brain microsomal fraction (final concentration of 4 μg/well) prepared in (2); from tissue; host or cells: brain of male Sprague-Dawley rats (microsomal fraction)
T2 sequence (P97612 1-579): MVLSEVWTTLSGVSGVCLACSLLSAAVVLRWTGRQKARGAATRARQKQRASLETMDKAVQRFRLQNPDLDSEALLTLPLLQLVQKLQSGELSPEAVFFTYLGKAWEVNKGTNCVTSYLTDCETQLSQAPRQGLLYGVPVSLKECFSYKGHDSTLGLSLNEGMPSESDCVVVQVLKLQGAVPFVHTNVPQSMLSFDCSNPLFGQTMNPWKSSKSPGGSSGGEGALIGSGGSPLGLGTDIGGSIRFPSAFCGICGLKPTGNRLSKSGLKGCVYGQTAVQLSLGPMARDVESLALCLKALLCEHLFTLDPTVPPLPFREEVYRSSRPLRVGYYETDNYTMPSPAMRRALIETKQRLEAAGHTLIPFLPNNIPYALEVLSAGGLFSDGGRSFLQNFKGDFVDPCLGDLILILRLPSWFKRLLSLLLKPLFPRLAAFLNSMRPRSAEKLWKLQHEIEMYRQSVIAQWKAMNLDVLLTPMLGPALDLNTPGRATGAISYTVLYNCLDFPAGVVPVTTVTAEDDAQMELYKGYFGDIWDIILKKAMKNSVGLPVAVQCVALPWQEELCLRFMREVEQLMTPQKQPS
Description: Male Sprague-Dawley (SD) rats of 10 weeks old were sacrificed by decapitation and the brains were removed. To the brains was added a buffer solution (50 mmol/L HEPES (pH 8.0), 1 mmol/L EDTA, 0.32 mol/L sucrose, Complete EDTA-free (Roche Diagnostics)) of 5-fold volume with respect to the brain wet weight, which was homogenized in a Potter homogenizer. The homogenate was centrifuged (9000 g, 10 mins., 4° C.) to collect the supernatant. The supernatant was further ultracentrifuged (105000 g, 60 mins., 4° C.) to collect the precipitates. The precipitates were suspended in a buffer solution (50 mmol/L HEPES (pH 8.0), 1 mmol/L EDTA) of ¼ volume with respect to the wet weight of the precipitates to quantify the protein level with the BCA Protein Assay (PIERCE).
as §1, §2

Row | IC50 [1] | IC50 [2] | Compound
1 | 0.1 to 1 µM | > 1 µM | O=C(Nc1ccccc1)N1CCC(c2noc3cc(F)ccc23)CC1 [Example 1, N-Phenyl-4-(6-fluoro-1,2-benzisoxazo-3-yl)piperidine-1-carboxamide]
2 | 0.1 to 1 µM | 0.1 to 1 µM | O=C(Nc1cccnn1)N1CCN(C2CCOc3ccc(Oc4ccc(C(F)(F)F)cn4)cc32)CC1 (centres unmarked) [Example 5, N-Pyridazin-3-yl-4-[6-[[5-(trifluoromethyl)-2-pyridinyl]oxy]-3,4-dihydro-2H-1-benzopyran-4-yl]piperazine-1-carboxamide]
3 | > 1 µM | 0.1 to 1 µM | CC1(C)CC(N2CCN(C(=O)Nc3cccnn3)CC2)c2ccc(C(F)(F)F)cc2O1 (centres unmarked) [Example 9, N-Pyridazin-3-yl-4-[2,2-dimethyl-7-(trifluoromethyl)-3,4-dihydro-2H-1-benzopyran-4-yl]piperazine-1-carboxamide]
4 | 0.1 to 1 µM | 0.1 to 1 µM | O=C(Nc1cccnn1)N1CCN(C2CCCOc3cc(C(F)(F)F)ccc32)CC1 (centres unmarked) [Example 10, N-Pyridazin-3-yl-4-[8-(trifluoromethyl)-2,3,4,5-tetrahydrobenz-1-oxepin-5-yl]piperazine-1-carboxamide]
5 | 0.1 to 1 µM | < 0.1 µM | O=C(Nc1cccnn1)N1CCN(C2CCOc3cc(C(F)(F)F)c(F)cc32)CC1 (centres unmarked) [Example 12, N-Pyridazin-3-yl-4-[6-fluoro-7-(trifluoromethyl)-3,4-dihydro-2H-1-benzopyran-4-yl]piperazine-1-carboxamide]
6 | 0.1 to 1 µM | 0.1 to 1 µM | O=C(Nc1ccccc1)N1CCN(C2CCOc3cc(C(F)(F)F)ccc32)C(=O)C1 (centres unmarked) [Example 15, N-Phenyl-3-yl-4-[7-(trifluoromethyl)-3,4-dihydro-2H-1-benzopyran-4-yl]-3-oxo-piperazine-1-carboxamide]
7 | < 0.1 µM | < 0.1 µM | O=C(Nc1cccnc1)N1CCN(C2CCOc3cc(C(F)(F)F)ccc32)CC1 (centres unmarked) [Example 17, N-Pyridine-3-yl-4-[7-(trifluoromethyl)-3,4-dihydro-2H-1-benzopyran-4-yl]piperazine-1-carboxamide]
8 | < 0.1 µM | 0.1 to 1 µM | Cc1ccc(NC(=O)N2CCN(C3CCOc4cc(C(F)(F)F)ccc43)CC2)cn1 (centres unmarked) [Example 18, N-(6-Methyl-pyridine-3-yl)-4-[7-(trifluoromethyl)-3,4-dihydro-2H-1-benzopyran-4-yl]piperazine-1-carboxamide]
9 | > 1 µM | > 1 µM | O=C(Nc1nccs1)N1CCN(C2CCOc3cc(C(F)(F)F)ccc32)CC1 (centres unmarked) [Example 22, N-(1,3-Thiazol-2-yl)-4-[7-(trifluoromethyl)-3,4-dihydro-2H-1-benzopyran-4-yl]piper azine-1-carboxamide]
10 | < 0.1 µM | 0.1 to 1 µM | O=C(Nc1cccnn1)N1CCC(N2CCOc3cc(C(F)(F)F)ccc32)CC1 [Example 24, N-Pyridazin-3-yl-4-[7-(trifluoromethyl)-2,3-dihydro-1,4-benzoxazin-4-yl]piperidine-1-carboxamide]
11 | < 0.1 µM | < 0.1 µM | O=C(Nc1cccnc1)N1CCN(C2CCOc3c2ccc(F)c3F)CC1 (centres unmarked) [Example 35, 4-(7,8-Difluoro-3,4-dihydro-2H-chromen-4-yl)-N-(pyridine-3-yl)piperazine-1-carboxamide]
12 | < 0.1 µM | < 0.1 µM | O=C(Nc1cnccn1)N1CCN(C2CCOc3cc(C(F)(F)F)ccc32)CC1 (centres unmarked) [Example 52, N-(Pyrazin-2-yl)-4-[7-(trifluoromethyl)-3,4-dihydro-2H-chromen-4-yl]piperazine-1-carboxamide]

Row | Compound | IC50 [1] | IC50 [2]
13 | N-(6-Methoxypyridazin-2-yl)-4-[7-(trifluoromethyl)-3,4-dihydro-2H-1-benzopyran-4-yl]piperazine-1-carboxamide [Example 21] | 0.1 to 1 µM | 0.1 to 1 µM
